Measured values from patent US20080234188A1, “Antimicrobial Peptides” (The Hospital for Sick Children, priority 2001, published 2008).
≈ marks a conversion by molar mass, not a printed value. Where a SMILES comes first, the peptide text is derived from it. Where no end group is shown, it is not given here.

Tests used:
E. coli UB1005 = assay type: cell-based, Escherichia coli; settings: UB1005
Excerpt: (§1) The bacterial strains used were E. coli C498, E. coli C500, Escherichia coli UB1005 and its antibiotic supersusceptible derivative DC2 (22); a clinical isolate of Staphylococcus epidermidis (C621); coryneform bacterial strain Corynebacterium xerosis (C875); and E. coli ATCC 25922, Staphylococcus aureus ATCC 25923, Enterococcus faecalis ATCC 29212, Bacillus subtilis ATCC 6633 and Pseudomonas aeruginosa ATCC 27853, all from American Type Culture Collection.
(§2) Peptide antibacterial activity was assessed by the method of R. Hancock et al. (Wu & Hancock (1999), J. Biol. Chem., v. 274, pp. 29-35). Test strains of bacteria from Mueller Hinton agar (MHA) plates were inoculated into 5 ml Mueller Hinton Broth (MHB) in tubes and grown overnight at 37° C. on a shaker (180 rpm). Serial dilutions of test peptides (at 10 times the required test concentrations) were made in 0.01% acetic acid, 0.2% BSA, in polypropylene or coated glass tubes as follows: the test peptide was (a) dissolved in distilled water at 20 times the required maximum concentration (enough final volume for all tests to be performed on a given day); (b) diluted into an equal volume of 0.02% acetic acid, 0.4% BSA to give 10 times the required maximum concentration; (c) serial doubling dilutions were performed in 0.01% acetic acid, 0.2% BSA to provide serial dilutions of peptides at 10 times the required test concentrations, e.g., 640, 320, 160, . . . 2.5 μg/ml. (No deleterious effects of long-term storage of peptides in these media have been detected). Overnight bacterial cultures were diluted in MHB to give 2−7×10^5 colony forming units/ml. Bacterial suspension (100 μl) was dispensed in each well; controls without bacteria were maintained in parallel. To each well was added 11 μl of 10× test peptide and plates were incubated at 37° C. for 18-24 hours, and checked again at 40-48 hours. Plates were read visually and at 600 nm in a microplate reader (Molecular Devices).
(§3) A further number of the peptides of the invention were tested for antimicrobial activity against a range of Gram-positive and Gram-negative bacteria by the assay described immediately before Example 1.

E. coli DC2 = assay: Assay of antibacterial activity (MIC), E. coli DC2; assay type: cell-based, Escherichia coli; settings: Table 3; Gram-negative
Excerpt: as §1, §2, §3

Rabbit RBC = assay type: cell-based
Protocol: (§4) Erythrocytes from heparinized rabbit or human blood were washed three times with phosphate-buffered saline (PBS; 5 mM phosphate buffer, 0.14 M saline, pH 7.3), and centrifuged at 1000×g for 15 min at 4° C. The erythrocytes were diluted with PBS to 4% (v/v). Dilutions of the peptides in PBS were plated in 100 μl volumes in microtitre plates (Costar 3790, polypropylene) together with 100μl of the erythrocyte suspension. PBS was used as control and 100% lysis was determined in 0.1% Triton X-100. The plates were incubated at 37° C. for 1 h and then centrifuged at 1000×g for 5 min. 100 μl aliquots of the supernatant were transferred to microtitre plates (Nunc, polystyrene), and the release of hemoglobin was monitored by measurement of the absorbance at 540 nm in a microplate reader. The results are shown in Table 6, for peptide concentrations of […]. With only one or two exceptions, little or no hemolysis was seen.

[1] = test system: Corynebacterium xerosis (C875); assay type: cell-based
Excerpt: as §1, §2
(§5) were synthesized. The antibacterial activity of these peptides was determined against both Gram-positive bacteria ([…], Corynebacterium xerosis) and Gram-negative bacteria (various strains of E. coli). The results are shown in Table 2, along with the average hydrophobicity of each peptide, calculated as described herein.
as §3

[2] = test system: Staphylococcus epidermidis (C621); assay type: cell-based
Excerpt: as §1, §2, §5, §3

[3] = Hydrophobicity (hydropathy) from reverse-phase HPLC retention scale; assay type: physicochemical; set-up: key to Average Hydrophobicity of Core Sequence / Mean Core segment Hydrophobicity: arithmetic average of Table 1 hydropathy values of constituent residues; key to Hydropathy: hydropathy scale from HPLC retention times of model peptides (Table 1); settings: for Average Hydrophobicity of Core Sequence: Table 2, calculated from Table 1 hydropathy values
Excerpt: The “hydrophobicity value” of an amino acid residue means the hydrophobicity value of that residue as shown in Table 1 or as calculated by the method described herein.
The “hydrophobicity value” of an amino acid sequence or peptide means the arithmetic average of the individual hydrophobicity values of the constituent amino acid residues of the sequence.
Various hydrophobicity scales for proteins and amino acids have been described in the literature but the inventors have established the hydrophobicity scale of Table 1 based on the retention times on HPLC of a series of hydrophobic model peptides, as described in Liu and Deber (1998), Biopolymers (Peptide Science), v. 47, pp. 41-62).
The hydrophobicity value shown for each amino acid in Table 1 as “hydropathy” may be used as the hydrophobicity value for that amino acid in any peptide whose hydrophobicity value has to be calculated. The “average hydrophobicity” of a peptide containing amino acids shown in Table 1 is calculated by determining the arithmetic average of the Table 1 “hydropathy” values for the constituent amino acids of the sequence.
Peptides in accordance with the invention may also include other amino acids. For an amino acid not included in Table 1, the hydrophobicity value may be determined by the same method as described herein for obtaining the values of Table 1. For example, a peptide such as KKAAAXAAAAAXAAXAAXAAAKKKK-amide (Sequence ID No: 1) may be synthesized, where X is the amino acid whose hydrophobicity value is to be determined, and the retention time of the peptide on HPLC is determined, as described in the Examples. Similar peptides where X is Lys or Phe are also prepared and their HPLC retention times determined. The retention time, Rx, is converted to the hydropathy value H for the selected amino acid using the equation
H=(10×ΔtRx-Lys/ΔtRPhe-Lys)−5.00
where ΔtRx-Lys=retention time difference in minutes between Rx and the retention time of the most hydrophilic peptide tested (X=Lys) and where ΔtRPhe-Lys=retention time difference in minutes between the most hydrophobic peptide tested (X=Phe) and the most hydrophilic (X=Lys).
The retention time of each peptide was determined on a C4 reversed-phase column (4.6×250 mm, 300 A pore size, 10 μ particle size). Equal amounts of each peptide were injected into the column and eluted at a flow rate of 1 mL/min, utilizing a linear AB gradient (2% B/min), where buffer A was 0.1% TFA/ddH2O, and buffer B was 0.1% TFA/acetonitrile. The retention time of each peptide reported here was the average of triplicate measurements.

[4] = test system: C498: E. coli, wild type strain; assay type: cell-based; settings: for MIC C498: wild type strain
Excerpt: as §1, §2, §5

[5] = test system: C500: E. coli, antibiotic strain; assay type: cell-based; settings: for MIC C500: antibiotic strain
Excerpt: as §1, §2, §5

Human RBC = assay type: cell-based
Protocol: as §4

| Molecule | MIC E. coli UB1005 (E. coli UB1005) | MIC E. coli DC2 (E. coli DC2) | Rabbit RBC (% lysis) 50 μM (Rabbit RBC) | Rabbit RBC (% lysis) 200 μM (Rabbit RBC) | MIC C. xerosis C875 [1] | MIC S. epidermidis C621 [2] | Mean residue hydropathy of X-residue peptide ([3]; Table 1) | Hydropathy ([3]; Table 1, of the X-residue, from HPLC retention of KKAAAXAAAAAXAAWAAXAAAKKKK-amide peptides) | Average Hydrophobicity of Core Sequence [3] | Mean Core segment Hydrophobicity ([3]; Table 3) | MIC C498 [4] | MIC C500 [5] | MIC C621 [2] | Human RBC (% lysis) 50 μM (Human RBC) | Human RBC (% lysis) 200 μM (Human RBC) | MIC C875 [1] | MIC C498 (active/inactive) ([4]; Table 2, class symbols) | MIC C500 (active/inactive) ([5]; Table 2, class symbols) | MIC C875 (active/inactive) ([1]; Table 2, class symbols) | MIC C621 (active/inactive) ([2]; Table 2, class symbols) |
| --- | --- | --- | --- | --- | --- | --- | --- | --- | --- | --- | --- | --- | --- | --- | --- | --- | --- | --- | --- | --- |
| C[C@H](NC(=O)[C@H](C)NC(=O)[C@H](C)NC(=O)[C@H](C)NC(=O)[C@H](C)NC(=O)[C@H](C)NC(=O)[C@H](C)NC(=O)[C@H](CCCCN)NC(=O)[C@@H](N)CCCCN)C(=O)N[C@@H](C)C(=O)N[C@@H](C)C(=O)N[C@@H](C)C(=O)N[C@@H](C)C(=O)N[C@@H](C)C(=O)N[C@@H](Cc1c[nH]c2ccccc12)C(=O)N[C@@H](C)C(=O)N[C@@H](C)C(=O)N[C@@H](C)C(=O)N[C@@H](C)C(=O)N[C@@H](C)C(=O)N[C@@H](C)C(=O)N[C@@H](CCCCN)C(=O)N[C@@H](CCCCN)C(=O)N[C@@H](CCCCN)C(=O)N[C@@H](CCCCN)C(N)=O [Peptide A25] (H-KKAAAAAAAAAAAAWAAAAAAKKKK-NH2; N-terminus assumed) | >64 µM | >64 µM | 0 % lysis | 1 % lysis | 2 µM (≈ 4.5 µg/mL) | >64 µM | – | – | – | – | – | – | – | – | – | – | – | – | – | – |
| CC[C@H](C)[C@H](NC(=O)[C@H](C)NC(=O)[C@H](C)NC(=O)[C@H](C)NC(=O)[C@H](CCCCN)NC(=O)[C@@H](N)CCCCN)C(=O)N[C@@H](C)C(=O)N[C@@H](C)C(=O)N[C@@H](C)C(=O)N[C@@H](C)C(=O)N[C@@H](C)C(=O)N[C@H](C(=O)N[C@@H](C)C(=O)N[C@@H](C)C(=O)N[C@@H](Cc1c[nH]c2ccccc12)C(=O)N[C@@H](C)C(=O)N[C@@H](C)C(=O)N[C@H](C(=O)N[C@@H](C)C(=O)N[C@@H](C)C(=O)N[C@@H](C)C(=O)N[C@@H](CCCCN)C(=O)N[C@@H](CCCCN)C(=O)N[C@@H](CCCCN)C(=O)N[C@@H](CCCCN)C(N)=O)[C@@H](C)CC)[C@@H](C)CC [Peptide I25] (H-KKAAAIAAAAAIAAWAAIAAAKKKK-NH2; N-terminus assumed) | >32 µM | 16 µM (≈ 38 µg/mL) | – | – | <0.25 µM | 4 µM (≈ 9.51 µg/mL) | 1.09 | 4.41 | 1.09 | 1.09 | 10 µM (≈ 23.8 µg/mL) | 10 µM (≈ 23.8 µg/mL) | 5 µM (≈ 11.9 µg/mL) | – | – | – | – | – | – | – |
| C[C@H](NC(=O)[C@H](C)NC(=O)[C@H](C)NC(=O)[C@H](CO)NC(=O)[C@H](C)NC(=O)[C@H](C)NC(=O)[C@H](C)NC(=O)[C@H](CCCCN)NC(=O)[C@@H](N)CCCCN)C(=O)N[C@@H](C)C(=O)N[C@@H](C)C(=O)N[C@@H](CO)C(=O)N[C@@H](C)C(=O)N[C@@H](C)C(=O)N[C@@H](Cc1c[nH]c2ccccc12)C(=O)N[C@@H](C)C(=O)N[C@@H](C)C(=O)N[C@@H](CO)C(=O)N[C@@H](C)C(=O)N[C@@H](C)C(=O)N[C@@H](C)C(=O)N[C@@H](CCCCN)C(=O)N[C@@H](CCCCN)C(=O)N[C@@H](CCCCN)C(=O)N[C@@H](CCCCN)C(N)=O [Peptide S25] (H-KKAAASAAAAASAAWAASAAAKKKK-NH2; N-terminus assumed) | >64 µM | >64 µM | 0 % lysis | 3 % lysis | >64 µM | >64 µM | – | – | – | – | – | – | – | 0 % lysis | 0 % lysis | – | – | – | – | – |
| C[C@H](NC(=O)[C@H](C)NC(=O)[C@H](C)NC(=O)[C@H](Cc1c[nH]c2ccccc12)NC(=O)[C@H](C)NC(=O)[C@H](C)NC(=O)[C@H](C)NC(=O)[C@H](CCCCN)NC(=O)[C@@H](N)CCCCN)C(=O)N[C@@H](C)C(=O)N[C@@H](C)C(=O)N[C@@H](Cc1c[nH]c2ccccc12)C(=O)N[C@@H](C)C(=O)N[C@@H](C)C(=O)N[C@@H](Cc1c[nH]c2ccccc12)C(=O)N[C@@H](C)C(=O)N[C@@H](C)C(=O)N[C@@H](Cc1c[nH]c2ccccc12)C(=O)N[C@@H](C)C(=O)N[C@@H](C)C(=O)N[C@@H](C)C(=O)N[C@@H](CCCCN)C(=O)N[C@@H](CCCCN)C(=O)N[C@@H](CCCCN)C(=O)N[C@@H](CCCCN)C(N)=O [Peptide W25] (H-KKAAAWAAAAAWAAWAAWAAAKKKK-NH2; N-terminus assumed) | 16 µM (≈ 41.6 µg/mL) | 8 µM (≈ 20.8 µg/mL) | – | – | <0.25 µM | <0.25 µM | – | – | – | – | 6 µM (≈ 15.6 µg/mL) | 3 µM (≈ 7.79 µg/mL) | 0.7 µM (≈ 1.82 µg/mL) | – | – | 0.2 µM (≈ 0.519 µg/mL) | – | – | – | – |
| KKATALVGAASLTAWVGLASAKKKK-NH2 | – | – | – | – | – | – | – | – | 0.62 | – | – | – | – | – | – | – | + | + | + | + |
